Results reported in patent publication US20120065231A1, “THIOPHENE DERIVATIVE” (SUMITOMO CHEMICAL COMPANY LTD., priority 2009, published 2012).
Where two headings read alike, the source gives them in different places.

Tests used:
androgen receptor = molecular target: T1, androgen receptor (Homo sapiens, UniProt P10275, DEL75-80/DUP470-473); assay: Androgen receptor agonist activity by reporter gene assay method; type: cell-based
T1 construct: expressed in transfected cells; host or cells: human-derived CHP212 cells, stably transformed with pGL3-TATA-3xARE and pRC/RSV-hAR Kozak
T1 sequence (P10275 with tags, fused parts or gaps DEL75-80/DUP470-473): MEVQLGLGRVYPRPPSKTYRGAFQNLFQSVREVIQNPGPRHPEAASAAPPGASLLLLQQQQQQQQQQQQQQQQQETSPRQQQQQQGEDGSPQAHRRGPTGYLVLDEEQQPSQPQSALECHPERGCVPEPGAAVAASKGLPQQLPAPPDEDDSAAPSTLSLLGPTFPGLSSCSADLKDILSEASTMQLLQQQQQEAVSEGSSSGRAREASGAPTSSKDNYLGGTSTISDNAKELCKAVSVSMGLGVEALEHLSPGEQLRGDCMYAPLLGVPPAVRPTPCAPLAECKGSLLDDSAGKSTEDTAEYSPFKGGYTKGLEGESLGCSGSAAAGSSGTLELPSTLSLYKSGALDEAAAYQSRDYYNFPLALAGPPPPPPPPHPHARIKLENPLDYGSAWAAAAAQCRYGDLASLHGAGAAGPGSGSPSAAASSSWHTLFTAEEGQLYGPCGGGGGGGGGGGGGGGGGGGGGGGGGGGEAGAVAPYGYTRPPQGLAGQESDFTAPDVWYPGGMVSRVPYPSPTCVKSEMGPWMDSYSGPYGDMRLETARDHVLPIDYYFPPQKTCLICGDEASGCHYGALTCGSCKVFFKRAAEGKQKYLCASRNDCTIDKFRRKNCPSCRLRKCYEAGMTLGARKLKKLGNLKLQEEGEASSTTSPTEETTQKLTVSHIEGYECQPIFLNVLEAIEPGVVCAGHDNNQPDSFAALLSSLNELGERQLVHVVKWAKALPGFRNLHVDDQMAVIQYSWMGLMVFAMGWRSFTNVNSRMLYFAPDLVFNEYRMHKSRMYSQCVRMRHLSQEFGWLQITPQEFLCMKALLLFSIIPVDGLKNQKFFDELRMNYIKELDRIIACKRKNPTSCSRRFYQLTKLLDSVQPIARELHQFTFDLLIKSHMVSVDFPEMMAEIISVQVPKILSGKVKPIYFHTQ
Description: After shaking for 10 minutes, the luciferase activity was measured by EnVision 2103 Multilabel Reader (PerkinElmer Co., Ltd.).

[1] = Test of S9 metabolism stability in human; type: in vitro ADME; details: human S9, NADPH, 37° C., reaction time 30 min
Description: (§1) For the inventive compound, was carried out test of a S9 metabolism stability in human, rat and mouse.
(§2) Using MINISORP(75×12) NUNC-IMMUNO tube, a 0.5 μM I.S.-added reaction stopping solution (500 μL) and a 10 mmol/L NADPH solution (50 μL) were mixed. Subsequently, a S9 mixture (445 μL) and pure water (5 μL) were added to prepare an I.S.-added blank sample. Likewise, a S9 mixture (445 μL) and a 100 μM test substance solution (5 μL) were added, preparing an calibration curve sample.
(§3) A S9 mixture (1068 μL) was dispensed into MINISORP (75×12) NUNC-IMMUNO tube. On ice water, a 100 μM test substance solution (12 μL) was added, and pre-incubation was carried out at 37° C. for 5 minutes. An aliquot (450 μL) of this was fractionated, and a […] I.S.-added reaction stopping solution (500 μL) and a 10 mmol/L NADPH solution (50 μL) were added, to obtain an unreacted sample (reaction time; 0 min). To the residue after fractionation, a 10 mmol/L NADPH solution (70 μL) was added, and incubation was carried out at 37° C. for 30 minutes, and an aliquot (500 μL) was fractionated, then, a 0.5 μM I.S.-added reaction stopping solution (500 μL) was added, preparing a reacted sample (reaction time; 30 min). […]

[2] = Test of S9 metabolism stability in rat; type: in vitro ADME; details: rat S9, NADPH, 37° C., reaction time 30 min
Description: as §1, §2, §3

[3] = Test of S9 metabolism stability in mouse; type: in vitro ADME; details: mouse S9, NADPH, 37° C., reaction time 30 min
Description: as §1, §2, §3

[4] = agonist activity, transformed human-derived CHP212 cells with pGL3-TATA-3×ARE luciferase reporter and pRC/RSV-hAR Kozak, 24 hours, read-out: EC50

SMILES | EC50 (androgen receptor; [4]) [nM] | also measured
CCCN(CC(F)(F)F)c1cc(C)c(C#N)s1 [Example 46, 5-[(propyl)(2,2,2-trifluoroethyl)amino]-3-methylthiophene-2-carbonitrile] | – | EC50 (androgen receptor): 25.2 nM
CCCN(CC(F)(F)F)c1cc(C(F)(F)F)c(C#N)s1 [Example 45, 5-[(propyl)(2,2,2-trifluoroethyl)amino]-3-trifluoromethylthiophene-2-carbonitrile] | – | EC50 (androgen receptor): 3.1 nM
CCCN(CC1CC1)c1cc(C(F)(F)F)c(C#N)s1 [Example 5, 5-[(cyclopropylmethyl)(propyl)amino]-3-(trifluoromethyl)thiophene-2-carbonitrile] | – | EC50 (androgen receptor): 11.9 nM
CC(C)CN(C)c1cc(Br)c(C#N)s1 [Example 13, 3-bromo-5-[(methyl)(2-methylpropyl)amino]thiophene-2-carbonitrile] | 1200 | –
CCCN(CC(=O)O)c1cc(Br)c(C#N)s1 [Example 26, N-(4-bromo-5-cyanothiophen-2-yl)-N-propylglycine] | > 10000 | –
CCCN(CC#N)c1cc(Br)c(C#N)s1 [Example 28, 3-bromo-5-[(cyanomethyl)(propyl)amino]thiophene-2-carbonitrile] | 580 | –
CC1CCN(c2cc(Br)c(C#N)s2)CC1 [Example 12, 3-bromo-5-(4-methylpiperidin-1-yl)thiophene-2-carbonitrile] | 1500 | –
CCCN(CC1OCCO1)c1cc(Br)c(C#N)s1 [Example 31, 3-bromo-5-[(1,3-dioxolan-2-ylmethyl)(propyl)amino]thiophene-2-carbonitrile] | 750 | –
CCCN(CC1CC1)c1cc(C#N)c(C(F)(F)F)s1 [Example 7, 5-[(cyclopropylmethyl)(propyl)amino]-2-(trifluoromethyl)thiophene-3-carbonitrile] | – | EC50 (androgen receptor): 99.3 nM
CCCN(CC1CC1)c1cc(Br)c(C#N)s1 [Example 2, 3-bromo-5-[(cyclopropylmethyl)(propyl)amino]thiophene-2-carbonitrile] | 10.6 | –
CCCN(CC1CC1)c1cc(Br)c(C=O)s1 [Example 1, 3-bromo-5-[(cyclopropylmethyl)(propyl)amino]thiophene-2-carbaldehyde] | > 10000 | –
N#Cc1sc(N2CCCCC2C(O)C(F)(F)F)cc1C(F)(F)F (stereo not drawn) [Example 43, 5-[2-(2,2,2-trifluoro-1-hydroxyethyl)piperidin-1-yl]-3-trifluoromethyl-thiophene-2-carbonitrile] | – | EC50 (androgen receptor): > 10000 nM
N#Cc1sc(N2CCCCC2C(O)C(F)(F)F)cc1Br (stereo not drawn) | – | Residual ratio (%) human [1]: 73.4%; Residual ratio (%) rat [2]: 40.1%; Residual ratio (%) mouse [3]: 39.1%
CCCN(CC(=O)OCC)c1cc(Br)c(C#N)s1 [Example 24, N-(4-bromo-5-cyanothiophen-2-yl)-N-propylglycine ethyl ester] | > 10000 | –
C=CCN(CC=C)c1cc(Br)c(C#N)s1 [Example 15, 3-bromo-5-(diallylamino)thiophene-2-carbonitrile] | 13.1 | –
COCCN(CCOC)c1cc(Br)c(C#N)s1 [Example 16, 5-[bis(2-methoxyethyl)amino]-3-bromothiophene-2-carbonitrile] | 1600 | –
CCCN(CC=O)c1cc(Br)c(C#N)s1 [Example 32, 3-bromo-5-[(2-oxoethyl)(propyl)amino]thiophene-2-carbonitrile] | > 10000 | –
CCCN(CCC)c1cc(Br)c(C#N)s1 [Example 14, 3-bromo-5-(dipropylamino)thiophene-2-carbonitrile] | 43.3 | –
CCCN(CC(F)(F)F)c1cc(Br)c(C#N)s1 [Example 23, 3-bromo-5-[(propyl)(2,2,2-trifluoroethyl)amino]thiophene-2-carbonitrile] | – | EC50 (androgen receptor): 5.4 nM
CCCN(CC(=O)NC)c1cc(Br)c(C#N)s1 [Example 25, N2-(4-bromo-5-cyanothiophen-2-yl)-N-methyl-N2-propylglycinamide] | 1500 | –

Second part, led by results:

EC50 (androgen receptor; [4]) [nM] | SMILES | also measured
14 | N#Cc1sc(N2CCCCC2C(O)C(F)(F)F)cc1Br (racemic) [Example 40, 3-bromo-5-[2-(2,2,2-trifluoro-1-hydroxyethyl)piperidin-1-yl]thiophene-2-carbonitrile] | –
450 | CC1CCCCN1c1cc(Br)c(C#N)s1 (stereo not drawn) [Example 9, 3-bromo-5-(2-methylpiperidin-1-yl)thiophene-2-carbonitrile] | –
1500 | N#Cc1sc(N2CCCCC2C#N)cc1Br (stereo not drawn) [Example 47, 5-(2-cyanopiperidin-1-yl)-3-bromo-thiophene-2-carbonitrile] | –
> 10000 | CCC1CCCC(=O)N1c1cc(Br)c(C#N)s1 (stereo not drawn) [Example 35, 3-bromo-5-(2-ethyl-6-oxopiperidin-1-yl)thiophene-2-carbonitrile] | –
1400 | N#Cc1sc(N2CCCC2)cc1Br [Example 8, 3-bromo-5-(pyrrolidin-1-yl)thiophene-2-carbonitrile] | –
560 | CC(O)C1CCCCN1c1cc(Br)c(C#N)s1 (stereo not drawn) [Example 41, 3-bromo-5-[2-(1-hydroxyethyl)piperidin-1-yl]thiophene-2-carbonitrile] | –
4.9 | CCC1CCCCN1c1cc(Br)c(C#N)s1 (stereo not drawn) [Example 17, 3-bromo-5-(2-ethylpiperidin-1-yl)thiophene-2-carbonitrile] | –
36.2 | CCCC1CCCCN1c1cc(Br)c(C#N)s1 (stereo not drawn) [Example 18, 3-bromo-5-(2-propylpiperidin-1-yl)thiophene-2-carbonitrile] | –
